Laboratory results: the supplement of paper PMC11061612

Legend:
Assay in all cases: Bliss excess, mean over the matrix (fraction); higher = more synergy
[1] = tested on: 23132-87 (Gastric Carcinoma)
Outline: (§1)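 After 24 hours at 37°C and 5% CO2 in 1536-well plates, cells in DMEM/F12 or RPMI plus 10% FBS received two-drug dose matrices for 72 hours. Viability came from CellTiter-Glo 2.0 luminescence and was scaled as inhibition, anchored at 0 by vehicle wells and at 1 by blank wells. Combination Emax is taken as the second-highest inhibition in the matrix, and Bliss excess as the observed combination effect less EA + EB − EA·EB, with EA and EB the single-agent effects.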

A2058 (Melanoma) = tested on: A2058 (Melanoma)
Outline: as §1

GB-1 (Glioblastoma) = tested on: GB-1 (Glioblastoma)
Outline: as §1

[2] = tested on: GP5d (Colorectal Carcinoma)
Outline: as §1

[3] = tested on: HCT-15 (Colorectal Carcinoma)
Outline: as §1

IST-MES1 (Mesothelioma) = tested on: IST-MES1 (Mesothelioma)
Outline: as §1

[4] = tested on: L-1236 (Hodgkin's Lymphoma)
Outline: as §1

[5] = tested on: LK-2 (Squamous Cell Lung Carcinoma)
Outline: as §1

[6] = tested on: LXF-289 (Lung Adenocarcinoma)
Outline: as §1

[7] = tested on: MFE-280 (Endometrial Carcinoma)
Outline: as §1

[8] = tested on: MKN45 (Gastric Carcinoma)
Outline: as §1

[9] = tested on: NCI-H23 (Lung Adenocarcinoma)
Outline: as §1

[10] = tested on: NCI-H446 (Small Cell Lung Carcinoma)
Outline: as §1

[11] = tested on: OVMIU (Ovarian Carcinoma)
Outline: as §1

[12] = tested on: PSN1 (Pancreatic Carcinoma)
Outline: as §1

[13] = tested on: RKN (Other Solid Carcinomas)
Outline: as §1

SF539 (Glioblastoma) = tested on: SF539 (Glioblastoma)
Outline: as §1

[14] = tested on: SHP-77 (Small Cell Lung Carcinoma)
Outline: as §1

[15] = tested on: VAL (B-Cell Non-Hodgkin's Lymphoma)
Outline: as §1

WM278 (Melanoma) = tested on: WM278 (Melanoma)
Outline: as §1

Structure (SMILES)	Bliss excess [1]	Bliss excess (A2058 (Melanoma))	Bliss excess (GB-1 (Glioblastoma))	Bliss excess [2]	Bliss excess [3]	Bliss excess (IST-MES1 (Mesothelioma))	Bliss excess [4]	Bliss excess [5]	Bliss excess [6]	Bliss excess [7]	Bliss excess [8]	Bliss excess [9]	Bliss excess [10]	Bliss excess [11]	Bliss excess [12]	Bliss excess [13]	Bliss excess (SF539 (Glioblastoma))	Bliss excess [14]	Bliss excess [15]	Bliss excess (WM278 (Melanoma))
Cc1nc(Nc2ncc(C(=O)Nc3c(C)cccc3Cl)s2)cc(N2CCN(CCO)CC2)n1 [Dasatinib] + CC(=O)Nc1cccc(-n2c(=O)n(C3CC3)c(=O)c3c(Nc4ccc(I)cc4F)n(C)c(=O)c(C)c32)c1 [Trametinib] (first compound max 2 µM, 7x7, partner max 1 µM)	-0.045	0.005	0.121	-0.0254	0.0847	0.0328	0.008	0.0113	-0.0439	-0.0004	-0.0069	0.0225	0.112	-0.0298	0.0121	0.0011	-0.0177	-0.0238	-0.0543	0.162
COc1cccc2c1C(=O)c1c(O)c3c(c(O)c1C2=O)C[C@@](O)(C(=O)CO)C[C@@H]3O[C@H]1C[C@H](N)[C@H](O)[C@H](C)O1 [Doxorubicin] + Cc1cc2ncnn2cc1Nc1ncc2c(n1)n(C1CCOCC1)c(=O)n2C [AZD7648] (first compound max 1 µM, 7x7, partner max 10 µM)	0.049	0.0185	0.0165	0.081	0.0644	0.0455	0.0332	0.0925	0.0233	0.0107	0.0162	0.0413	0.0855	-0.0193	0.0173	0.0697	0.0403	0.0556	0.0974	0.0204
COc1cc2ncnc(Nc3ccc(F)c(Cl)c3)c2cc1OCCCN1CCOCC1 [Gefitinib] + CC(C)n1c(=O)n(C)c2cnc3cc(F)c(-c4ccc(OCCCN5CCCCC5)nc4)cc3c21 [AZD1390] (first compound max 10 µM, 7x7, partner max 0.3 µM)	-0.025	-0.0343	-0.0815	-0.0359	-0.0533	-0.0524	-0.0467	0.0037	-0.0717	-0.0676	-0.046	-0.0466	-0.0082	-0.0564	-0.0338	-0.0646	-0.0347	-0.0471	-0.0608	-0.0728
CS(=O)(=O)CCNCc1ccc(-c2ccc3ncnc(Nc4ccc(OCc5cccc(F)c5)c(Cl)c4)c3c2)o1 [Lapatinib] + C[C@@H](Oc1cc(-c2cnn(C3CCNCC3)c2)cnc1N)c1c(Cl)ccc(F)c1Cl [Crizotinib] (first compound max 10 µM, 7x7, partner max 10 µM)	0.0195	-0.0237	-0.11	-0.0036	-0.0205	-0.0937	0.0239	0.0067	-0.0848	-0.0226	-0.0063	-0.0265	-0.0344	-0.0097	-0.0443	-0.05	-0.0621	-0.0004	-0.0531	-0.0284
CC(=O)c1c(C)c2cnc(Nc3ccc(N4CCNCC4)cn3)nc2n(C2CCCC2)c1=O [Palbociclib] + CC1(C)CCC(CN2CCN(c3ccc(C(=O)NS(=O)(=O)c4ccc(NCC5CCOCC5)c([N+](=O)[O-])c4)c(Oc4cnc5[nH]ccc5c4)c3)CC2)=C(c2ccc(Cl)cc2)C1 [Venetoclax] (first compound max 10 µM, 7x7, partner max 1 µM)	-0.0416	-0.0231	-0.0448	-0.011	0.0105	-0.0203	0.0003	-0.0179	-0.0189	-0.068	-0.0481	-0.0199	0.0219	-0.0402	-0.0149	-0.0841	-0.0164	0.0543	-0.0109	-0.0338
CC(=O)c1c(C)c2cnc(Nc3ccc(N4CCNCC4)cn3)nc2n(C2CCCC2)c1=O [Palbociclib] + Cc1c2c(nn1C)CSCc1cc(n(C)n1)CSc1cc(c3ccccc3c1)OCCCc1c(C(=O)O)n(C)c3c-2c(Cl)ccc13 [AZD5991] (first compound max 10 µM, 7x7, partner max 1 µM)	-0.198	0.0085	-0.102	-0.069	0.0011	-0.0111	-0.0341	0.0076	0.008	-0.0333	-0.0556	-0.0562	0.0062	-0.0416	-0.0111	-0.0557	-0.0637	-0.0247	0.0533	-0.0395
CC(=O)c1c(C)c2cnc(Nc3ccc(N4CCNCC4)cn3)nc2n(C2CCCC2)c1=O [Palbociclib] + Cn1cnc2c(F)c(Nc3ccc(Br)cc3Cl)c(C(=O)NOCCO)cc21 [Selumetinib] (first compound max 10 µM, 7x7, partner max 10 µM)	-0.0683	0.0131	-0.0016	-0.0062	0.0538	-0.0799	-0.0841	0.0281	-0.0054	-0.0255	-0.0092	-0.0057	-0.0689	-0.0097	0.0226	-0.0279	-0.0345	0.0052	0.0029	-0.0152
COc1cccc(OCCCN)c1-c1cc(Nc2cnc(C#N)cn2)n[nH]1 [Prexasertib] + C=CCn1c(=O)c2cnc(Nc3ccc(N4CCN(C)CC4)cc3)nc2n1-c1cccc(C(C)(C)O)n1 [AZD1775] (first compound max 1 µM, partner max 1 µM)	0.0641	0.0994	0.0483	0.035	0.0406	0.127	-0.0943	0.0739	0.0418	0.176	-0.0561	0.0334	0.0829	0.0574	0.178	0.117	0.0187	0.0413	0.0026	0.0753
COc1cccc(OCCCN)c1-c1cc(Nc2cnc(C#N)cn2)n[nH]1 [Prexasertib] + CCc1c2c(nc3ccc(O)cc13)-c1cc3c(c(=O)n1C2)COC(=O)[C@]3(O)CC [SN-38] (first compound max 1 µM, 7x7, partner max 0.3 µM)	-0.0307	0.123	-0.0438	-0.0173	0.051	-0.026	-0.0584	0.0915	-0.0201	0.115	-0.0493	-0.0001	0.0756	-0.0921	0.0569	0.134	-0.0091	0.121	-0.0702	-0.0479
COc1cccc(OCCCN)c1-c1cc(Nc2cnc(C#N)cn2)n[nH]1 [Prexasertib] + CN(C)CCCOc1ccc(-c2ccc3ncc4c(c3c2)n(C2CCOCC2)c(=O)n4C)cn1 [AZD0156] (first compound max 1 µM, 7x7, partner max 1 µM)	-0.0009	0.007	-0.0079	0.0215	0.0607	-0.0211	-0.0649	-0.0181	0.0113	-0.0219	-0.0645	-0.0245	-0.0009	-0.0012	-0.0038	-0.0478	-0.0339	0.0107	-0.0162	0.0128
COc1cccc(OCCCN)c1-c1cc(Nc2cnc(C#N)cn2)n[nH]1 [Prexasertib] + C[C@@H]1COCCN1C2=NC(=NC(=C2)C3(CC3)[S@](=N)(=O)C)C4=C5C=CNC5=NC=C4 [AZD6738] (first compound max 1 µM, 7x7, partner max 10 µM)	-0.0085	0.0232	-0.0337	-0.0157	0.0391	0.0093	-0.0199	-0.0182	-0.0228	-0.024	-0.0931	-0.0504	0.0078	0.0388	0.0334	-0.027	-0.0046	0.0645	-0.0637	-0.0364
COc1cccc(OCCCN)c1-c1cc(Nc2cnc(C#N)cn2)n[nH]1 [Prexasertib] + Cc1cc2ncnn2cc1Nc1ncc2c(n1)n(C1CCOCC1)c(=O)n2C [AZD7648] (first compound max 1 µM, 7x7, partner max 10 µM)	-0.0365	0.0025	0.0387	0.033	-0.0449	-0.0032	-0.046	-0.037	-0.0006	0.0032	-0.0229	-0.026	-0.008	-0.0211	0.0106	-0.0293	0.014	-0.0143	-0.0204	-0.009
COc1cccc(OCCCN)c1-c1cc(Nc2cnc(C#N)cn2)n[nH]1 [Prexasertib] + O=C(c1cc(Cc2n[nH]c(=O)c3ccccc23)ccc1F)N1CCN(C(=O)C2CC2)CC1 [Olaparib] (first compound max 1 µM, 7x7, partner max 10 µM)	-0.0503	0.0158	-0.0002	-0.0179	-0.0077	-0.0105	-0.0391	-0.0249	-0.0569	-0.0223	-0.044	-0.0675	0.003	-0.0938	-0.0146	-0.0958	0.0007	-0.0791	-0.0518	-0.0732
COc1cc2c(cc1OCCCCCOc1cc3c(cc1OC)C(=O)N1C=C(C)C[C@H]1C=N3)N=C[C@@H]1CC(C)=CN1C2=O [SG3199] + O=C(c1cc(Cc2n[nH]c(=O)c3ccccc23)ccc1F)N1CCN(C(=O)C2CC2)CC1 [Olaparib] (first compound max 0.001 µM, 7x7, partner max 10 µM)	0.0217	-0.0172	-0.0328	-0.0206	0.0701	-0.0402	-0.0387	-0.0137	-0.0358	-0.0092	-0.0633	0.0008	-0.0372	-0.0898	-0.0371	-0.0377	-0.0049	-0.0137	-0.0069	-0.0299
CCc1c2c(nc3ccc(O)cc13)-c1cc3c(c(=O)n1C2)COC(=O)[C@]3(O)CC [SN-38] + CN(C)CCCOc1ccc(-c2ccc3ncc4c(c3c2)n(C2CCOCC2)c(=O)n4C)cn1 [AZD0156] (first compound max 0.3 µM, 7x7, partner max 1 µM)	0.0322	0.0477	-0.0374	0.0624	0.0187	0.0085	-0.079	0.0959	0.0639	-0.0605	-0.049	-0.0247	0.121	-0.0047	-0.0198	0.0057	0.0216	0.0296	0	0.042
